In patent publication US9023789B2, “Amylin analogs and pharmaceutical compositions thereof” (Novo Nordisk A/S, priority 2012, dated 2015):
≈ marks a conversion by molar mass, not a printed value. Where two headings read alike, the source gives them in different places. Numbered stars: 1 amine (or outer) side, 2 acyl side, 3 side chain; on linkers, the order of the positions; unused ones are H or OH. Bridge positions count the residues as written; N and C are the ends. Side chains are listed from the residue outwards. Peptide text beside a SMILES is read from it. * marks the point of attachment. C20 diacid = O=C(O)CCCCCCCCCCCCCCCCCCC(=O)*; γGlu = O=C(O)[C@H](CCC(=O)[*:2])N[*:1]; AEEA = NCCOCCOCC(=O)O

Tests used:
[1] = biological target: T1, human amylin 3(a) receptor (human calcitonin receptor + RAMP-3) in BHK570 cells (Homo sapiens, UniProt O60896+P30988); assay: ASSAY (II)a functional assay, human amylin receptor (CRE luciferase); type: cell-based; settings: for EC50: human amylin receptor functional potency, assay (II), read-out: hAmylin-R funct. EC50
T1 construct: expressed in transfected cells
T1 sequence (O60896 24-148): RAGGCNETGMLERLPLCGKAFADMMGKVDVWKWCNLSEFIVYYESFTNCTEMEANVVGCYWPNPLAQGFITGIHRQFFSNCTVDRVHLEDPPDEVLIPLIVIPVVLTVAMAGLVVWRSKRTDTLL
T1 sequence (P30988 25-474): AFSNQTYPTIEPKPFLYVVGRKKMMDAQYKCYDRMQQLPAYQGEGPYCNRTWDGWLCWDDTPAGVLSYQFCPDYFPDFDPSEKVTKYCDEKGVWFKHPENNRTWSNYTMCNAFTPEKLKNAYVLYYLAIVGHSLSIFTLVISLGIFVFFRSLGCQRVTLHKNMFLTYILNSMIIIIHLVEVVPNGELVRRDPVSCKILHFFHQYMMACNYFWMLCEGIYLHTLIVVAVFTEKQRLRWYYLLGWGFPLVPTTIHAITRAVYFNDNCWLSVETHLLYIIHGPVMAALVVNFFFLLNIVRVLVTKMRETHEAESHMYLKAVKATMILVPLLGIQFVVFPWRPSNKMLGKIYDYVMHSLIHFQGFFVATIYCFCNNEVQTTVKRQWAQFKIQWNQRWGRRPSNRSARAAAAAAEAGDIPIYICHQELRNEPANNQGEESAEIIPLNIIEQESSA
Procedure, shortened: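 BHK cells stably carrying a CRE-luciferase reporter plus calcitonin receptor, or calcitonin receptor with RAMP-3 for the amylin 3(a) receptor, were seeded and kept overnight at 37° C. Compounds were added in assay medium with 10% FBS and 10 mM Hepes, pH 7.4, for 3 hours at 37° C, then luminescence was counted.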

[2] = ASSAY (IV) determination of solubility; type: physicochemical
Procedure, shortened: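 Dissolve polypeptide in water ([…] stock); combine 1:1 with each 100 mM buffer (glycylglycine pH 3.0/4.0/5.0; bistrispropane pH 6.0/6.5/7.0/7.5/8.0); hold 18 hours at room temperature; centrifuge; quantify polypeptide by UPLC.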

[3] = biological target: T2, rat amylin receptor (rat calcitonin receptor + rat RAMP 3) (Rattus norvegicus, UniProt P32214+Q9JJ73); assay: ASSAY (VI) binding to the rat amylin receptor; settings: for IC50: binding to rat amylin receptor, read-out: rAmylin-R bind IC50
T2 construct: expressed in transfected cells; host or cells: BHK tk'ts 13 (transient, FuGENE 6), membranes
T2 sequence (P32214 25-479 isoform P32214-2 limits assumed): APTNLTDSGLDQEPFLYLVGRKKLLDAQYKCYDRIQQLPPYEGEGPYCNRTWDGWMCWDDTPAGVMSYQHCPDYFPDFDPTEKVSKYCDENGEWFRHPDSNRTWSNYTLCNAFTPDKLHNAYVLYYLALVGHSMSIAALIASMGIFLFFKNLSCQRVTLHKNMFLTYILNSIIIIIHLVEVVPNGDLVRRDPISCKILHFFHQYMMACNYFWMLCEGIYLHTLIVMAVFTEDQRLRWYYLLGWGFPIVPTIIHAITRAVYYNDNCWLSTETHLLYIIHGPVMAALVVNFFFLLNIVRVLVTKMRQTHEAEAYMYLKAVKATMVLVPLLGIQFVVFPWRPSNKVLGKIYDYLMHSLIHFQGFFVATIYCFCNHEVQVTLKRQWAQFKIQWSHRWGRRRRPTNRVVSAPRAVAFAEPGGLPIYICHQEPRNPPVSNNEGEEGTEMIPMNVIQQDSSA
T2 sequence (Q9JJ73 23-147 partner): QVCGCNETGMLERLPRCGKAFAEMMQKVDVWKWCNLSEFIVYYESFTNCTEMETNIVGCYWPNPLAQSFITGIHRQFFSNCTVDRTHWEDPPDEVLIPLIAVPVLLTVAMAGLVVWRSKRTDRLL
Procedure, shortened: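 Binding to the rat amylin receptor was determined with membrane preparations. The receptor was expressed by transiently transfecting BHK tk′ts 13 cells with rat calcitonin receptor, using FuGENE® 6 (Roche) according to the manufacturer's recommendations. Roughly 48 hours later the cells were harvested and their membranes isolated.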

rat calcitonin receptor = biological target: T3, rat calcitonin receptor (Rattus norvegicus, UniProt P32214); assay: ASSAY (VIII) binding to the rat calcitonin receptor; settings: Table 7, read-out: rCTR bind IC50
T3 construct: expressed in transfected cells; host or cells: BHK tk'ts 13 (transient, FuGENE 6), membranes
T3 sequence (P32214 25-479 isoform P32214-2 limits assumed): T2 sequence (P32214 25-479 isoform P32214-2 limits assumed)
Procedure, shortened: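 Rat calcitonin receptor is expressed transiently in BHK tk′ts 13 cells cultured in DMEM with 10% FBS. Roughly two days (approximately 48 hours) post-transfection, cells are harvested for membrane preparation.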

[4] = hCTR funct. EC50 divided by hAmylin-R funct. EC50
[5] = hCTR funct. EC50 over hAmylin-R funct. EC50
[6] = human functional selectivity: hCTR funct. EC50 / hAmylin-R funct. EC50
[7] = bistrispropane buffer, pH 6.5, read-out: Solubility pH 6.5 Concentration
[8] = bistrispropane buffer, pH 7.5, read-out: Solubility pH 7.5 Concentration
[9] = bistrispropane buffer, pH 6.0, read-out: Solubility pH 6.0 Concentration
[10] = bistrispropane buffer, pH 7.0, read-out: Solubility pH 7.0 Concentration
[11] = bistrispropane buffer, pH 8.0, read-out: Solubility pH 8.0 Concentration
[12] = glycylglycine buffer, pH 3.0, read-out: Solubility pH 3.0 Concentration
[13] = glycylglycine buffer, pH 4.0, read-out: Solubility pH 4.0 Concentration
[14] = glycylglycine buffer, pH 5.0, read-out: Solubility pH 5.0 Concentration
[15] = Table 7, rat binding selectivity, rCTR IC50 / rAmylin-R IC50
[16] = Table 7a (preferred compounds), rat binding selectivity, rCTR IC50 / rAmylin-R IC50
[17] = ratio of rCTR bind IC50 to rAmylin-R bind IC50

| Ratio hCT/hAmylin funct. [1, 4] | Ratio hCT/hAmylin funct. [1, 5] | Ratio hCT/hAmylin funct. [1, 6] | solubility at 18 h [2, 7] [µM] | solubility at 18 h [2, 8] [µM] | solubility at 18 h [2, 9] [µM] | solubility at 18 h [2, 10] [µM] | solubility at 18 h [2, 11] [µM] | solubility at 18 h [2, 12] [µM] | solubility at 18 h [2, 13] [µM] | solubility at 18 h [2, 14] [µM] | IC50 ([3]; Table 7) [nM] | Ratio rCT/rAmylin binding [3, 15] | Ratio rCT/rAmylin binding [3, 16] | Ratio rCT/rAmylin binding [3, 17] | IC50 (rat calcitonin receptor) [nM] | EC50 [1] [nM] | Structure (SMILES) |
| --- | --- | --- | --- | --- | --- | --- | --- | --- | --- | --- | --- | --- | --- | --- | --- | --- | --- |
| 19.5 | 19.5 | 19.5 | ≥ 200 | ≥ 200 | ≥ 200 | ≥ 200 | 176 (≈ 824 µg/mL) | ≥ 200 | ≥ 200 | ≥ 200 | 0.137 | 175.5 | 175.5 | 175.5 | 24.1 | – | CC[C@H](C)[C@H](NC(=O)[C@H](C)NC(=O)CNC(=O)[C@H](Cc1ccccc1)NC(=O)[C@H](CC(N)=O)NC(=O)[C@@H]1CCCN1C(=O)[C@H](CO)NC(=O)[C@H](CO)NC(=O)[C@H](Cc1c[nH]cn1)NC(=O)[C@H](CCCNC(=N)N)NC(=O)[C@H](CC(C)C)NC(=O)[C@H](Cc1ccccc1)NC(=O)[C@H](CC(N)=O)NC(=O)[C@H](C)NC(=O)[C@H](CC(C)C)NC(=O)[C@H](CCCNC(=N)N)NC(=O)[C@H](CCC(N)=O)NC(=O)[C@@H](NC(=O)[C@H](C)NC(=O)[C@@H]1CSSC[C@H](NC(=O)[C@@H](N)CCCCNC(=O)COCCOCCNC(=O)COCCOCCNC(=O)CC[C@H](NC(=O)CCCCCCCCCCCCCCCCCCC(=O)O)C(=O)O)C(=O)N[C@@H](CC(N)=O)C(=O)N[C@@H]([C@@H](C)O)C(=O)N[C@@H](C)C(=O)N[C@@H]([C@@H](C)O)C(=O)N1)[C@@H](C)O)C(=O)N1CCC[C@H]1C(=O)N[C@@H](CO)C(=O)N[C@@H](CO)C(=O)N[C@H](C(=O)N[C@@H](CC(N)=O)C(=O)N[C@H](C(=O)NCC(=O)N1CCC[C@H]1C(=O)N[C@@H](CC(N)=O)C(=O)N[C@H](C(=O)N[C@@H](Cc1ccc(O)cc1)C(N)=O)[C@@H](C)O)C(C)C)[C@@H](C)O [Example 98] |
| 30.6 | 30.6 | 30.6 | ≥ 200 | 193 (≈ 868 µg/mL) | ≥ 200 | ≥ 200 | 150 (≈ 674 µg/mL) | ≥ 200 | ≥ 200 | ≥ 200 | 4.03 | 109.8 | 109.8 | 109.8 | 442 | 0.296 | CC[C@H](C)[C@H](NC(=O)[C@H](C)NC(=O)CNC(=O)[C@H](Cc1ccccc1)NC(=O)[C@H](CC(N)=O)NC(=O)[C@@H]1CCCN1C(=O)[C@H](CO)NC(=O)[C@H](CO)NC(=O)[C@H](Cc1c[nH]cn1)NC(=O)[C@H](CCCNC(=N)N)NC(=O)[C@H](CC(C)C)NC(=O)[C@H](Cc1ccccc1)NC(=O)[C@@H](NC(=O)[C@H](C)NC(=O)[C@H](CC(C)C)NC(=O)[C@H](CCCNC(=N)N)NC(=O)[C@H](CCC(N)=O)NC(=O)[C@@H](NC(=O)[C@H](C)NC(=O)[C@@H]1CSSC[C@H](NC(=O)[C@@H](N)CCCCNC(=O)COCCOCCNC(=O)CC[C@H](NC(=O)CCCCCCCCCCCCCCCCCCC(=O)O)C(=O)O)C(=O)N[C@@H](CC(N)=O)C(=O)N[C@@H]([C@@H](C)O)C(=O)N[C@@H](C)C(=O)N[C@@H]([C@@H](C)O)C(=O)N1)[C@@H](C)O)[C@@H](C)O)C(=O)N1CCC[C@H]1C(=O)N[C@@H](CO)C(=O)N[C@@H](CO)C(=O)N[C@H](C(=O)N1CCC[C@H]1C(=O)N[C@H](C(=O)NCC(=O)N[C@@H](CO)C(=O)N[C@@H](CC(N)=O)C(=O)N[C@H](C(=O)N[C@@H](Cc1ccc(O)cc1)C(N)=O)[C@@H](C)O)C(C)C)[C@@H](C)O [Example 75] (H-K([AEEA-γGlu-C20 diacid])CNTATCATQRLATFLRHSSPNFGAIPSSTPVGSNTY-NH2; disulfide 2-7 (inferred); N-terminus assumed) |
| 44.9 | 44.9 | 44.9 | ≥ 200 | ≥ 200 | ≥ 200 | ≥ 200 | 194 (≈ 866 µg/mL) | ≥ 200 | ≥ 200 | ≥ 200 | 0.851 | 259.3 | 259.3 | 259.3 | 221 | 0.106 | CC[C@H](C)[C@H](NC(=O)[C@H](C)NC(=O)CNC(=O)[C@H](Cc1ccccc1)NC(=O)[C@H](CC(N)=O)NC(=O)[C@@H]1CCCN1C(=O)[C@H](CO)NC(=O)[C@H](CO)NC(=O)[C@H](Cc1c[nH]cn1)NC(=O)[C@H](CCCNC(=N)N)NC(=O)[C@H](CC(C)C)NC(=O)[C@H](Cc1ccccc1)NC(=O)[C@H](C)NC(=O)[C@H](C)NC(=O)[C@H](CC(C)C)NC(=O)[C@H](CCCNC(=N)N)NC(=O)[C@H](CCC(N)=O)NC(=O)[C@@H](NC(=O)[C@H](C)NC(=O)[C@@H]1CSSC[C@H](NC(=O)[C@@H](N)CCCCNC(=O)COCCOCCNC(=O)CC[C@H](NC(=O)CCCCCCCCCCCCCCCCCCC(=O)O)C(=O)O)C(=O)N[C@@H](CC(N)=O)C(=O)N[C@@H]([C@@H](C)O)C(=O)N[C@@H](C)C(=O)N[C@@H]([C@@H](C)O)C(=O)N1)[C@@H](C)O)C(=O)N1CCC[C@H]1C(=O)N[C@@H](CO)C(=O)N[C@@H](CO)C(=O)N[C@H](C(=O)N1CCC[C@H]1C(=O)N[C@H](C(=O)NCC(=O)N[C@@H](CO)C(=O)N[C@@H](CC(N)=O)C(=O)N[C@H](C(=O)N[C@@H](Cc1ccc(O)cc1)C(N)=O)[C@@H](C)O)C(C)C)[C@@H](C)O [Example 72] (H-K([AEEA-γGlu-C20 diacid])CNTATCATQRLAAFLRHSSPNFGAIPSSTPVGSNTY-NH2; disulfide 2-7 (inferred); N-terminus assumed) |
| 16.7 | 16.7 | 16.7 | – | – | – | – | – | – | – | – | 1.37 | 54.0 | 54.0 | 54.0 | 74.1 | 0.26 | CC[C@H](C)[C@H](NC(=O)[C@H](C)NC(=O)CNC(=O)[C@H](Cc1ccccc1)NC(=O)[C@H](CC(N)=O)NC(=O)[C@@H]1CCCN1C(=O)[C@H](CO)NC(=O)[C@H](CO)NC(=O)[C@H](Cc1c[nH]cn1)NC(=O)[C@H](CCCNC(=N)N)NC(=O)[C@H](CC(C)C)NC(=O)[C@H](Cc1ccccc1)NC(=O)[C@H](CC(N)=O)NC(=O)[C@H](C)NC(=O)[C@H](CC(C)C)NC(=O)[C@H](CCCNC(=N)N)NC(=O)[C@H](CCC(N)=O)NC(=O)[C@@H](NC(=O)[C@H](C)NC(=O)[C@@H]1CSSC[C@H](NC(=O)[C@@H](N)CCCCNC(=O)COCCOCCNC(=O)CC[C@H](NC(=O)CCCCCCCCCCCCCCCCCCC(=O)O)C(=O)O)C(=O)N[C@@H](CC(N)=O)C(=O)N[C@@H]([C@@H](C)O)C(=O)N[C@@H](C)C(=O)N[C@@H]([C@@H](C)O)C(=O)N1)[C@@H](C)O)C(=O)N1CCC[C@H]1C(=O)N[C@@H](CO)C(=O)N[C@@H](CO)C(=O)N[C@H](C(=O)N[C@@H](CC(N)=O)C(=O)N[C@H](C(=O)NCC(=O)N[C@@H](CO)C(=O)N[C@@H](CC(N)=O)C(=O)N[C@H](C(=O)N[C@@H](Cc1ccc(O)cc1)C(N)=O)[C@@H](C)O)C(C)C)[C@@H](C)O [Example 41] |
